Results reported in the supplement of paper PMC10307832.

Columns and labels:
Experiment in all cases: relative viability (nuclei count vs DMSO), 5 days (fraction); higher = more cells survive
[1] = compound: Cc1ccc(C(=O)Nc2cccc(C(F)(F)F)c2)cc1Nc1cncc(C(N)=O)c1 [ALW-II-49-7] + O=C(CCCCCCC(=O)Nc1ccccc1)NO [Vorinostat] (partner 1 µM)
Method in brief: (§1)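 Values are medians from duplicate plates. Each reflects relative viability, defined as the nuclei count of treated wells over that of vehicle wells. Lung cancer cell lines in 1536-well plates were pin-tool dosed one day after seeding with one drug alone or with a fixed anchor-drug dose plus five library-drug doses (not always all listed) in √10 steps, then fixed, stained and imaged at 4× after 5 days.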

[2] = compound: Cc1nc(Nc2ncc(C(=O)Nc3c(C)cccc3Cl)s2)cc(N2CCN(CCO)CC2)n1 [Dasatinib] + CC(=O)c1c(C)c2cnc(Nc3ccc(N4CCNCC4)cn3)nc2n(C2CCCC2)c1=O [Palbociclib] (partner 0.5 µM)
Method in brief: as §1

[3] = compound: C1CC1C(=O)NC2=NNC3=C2C=CC(=C3)C4=CC(=CC=C4)C(=O)NC5CC5 [XMD13-2] + Cc1nc(Nc2ncc(C(=O)Nc3c(C)cccc3Cl)s2)cc(N2CCN(CCO)CC2)n1 [Dasatinib] (partner 0.075 µM)
Method in brief: as §1

[4] = compound: Cc1nc(Nc2ncc(C(=O)Nc3c(C)cccc3Cl)s2)cc(N2CCN(CCO)CC2)n1 [Dasatinib] + Nc1nc2[nH]cc(CCc3ccc(C(=O)N[C@@H](CCC(=O)O)C(=O)O)cc3)c2c(=O)[nH]1 [Pemetrexed] (partner 0.2 µM)
Method in brief: as §1

201T
relative viability ([1]; first compound 0.08 µM): 0.922
relative viability ([1]; first compound 0.253 µM): 1.02
relative viability ([1]; first compound 0.8 µM): 0.995
relative viability ([1]; first compound 2.53 µM): 1.02
relative viability ([1]; first compound 8 µM): 0.801
relative viability ([2]; first compound 0.005 µM): 0.341
relative viability ([2]; first compound 0.01581 µM): 0.306
relative viability ([2]; first compound 0.05 µM): 0.311
relative viability ([2]; first compound 0.1581 µM): 0.296
relative viability ([2]; first compound 0.5 µM): 0.237
relative viability ([3]; first compound 0.05 µM): 0.686
relative viability ([3]; first compound 0.1581 µM): 0.533
relative viability ([3]; first compound 0.5 µM): 0.578
relative viability ([3]; first compound 1.581 µM): 0.555
relative viability ([3]; first compound 5 µM): 0.563
relative viability ([4]; first compound 0.005 µM): 0.404
relative viability ([4]; first compound 0.01581 µM): 0.332
relative viability ([4]; first compound 0.05 µM): 0.31
relative viability ([4]; first compound 0.1581 µM): 0.292
relative viability ([4]; first compound 0.5 µM): 0.268

A-427
relative viability ([1]; first compound 0.08 µM): 0.936
relative viability ([1]; first compound 0.253 µM): 0.902
relative viability ([1]; first compound 0.8 µM): 0.854
relative viability ([1]; first compound 2.53 µM): 0.838
relative viability ([1]; first compound 8 µM): 0.826
relative viability ([2]; first compound 0.005 µM): 0.5
relative viability ([2]; first compound 0.01581 µM): 0.507
relative viability ([2]; first compound 0.05 µM): 0.525
relative viability ([2]; first compound 0.1581 µM): 0.42
relative viability ([2]; first compound 0.5 µM): 0.394
relative viability ([3]; first compound 0.05 µM): 0.767
relative viability ([3]; first compound 0.1581 µM): 0.792
relative viability ([3]; first compound 0.5 µM): 0.705
relative viability ([3]; first compound 1.581 µM): 0.683
relative viability ([3]; first compound 5 µM): 0.536
relative viability ([4]; first compound 0.005 µM): 0.972
relative viability ([4]; first compound 0.01581 µM): 0.832
relative viability ([4]; first compound 0.05 µM): 0.807
relative viability ([4]; first compound 0.1581 µM): 0.556
relative viability ([4]; first compound 0.5 µM): 0.619

ABC-1
relative viability ([1]; first compound 0.08 µM): 1.05
relative viability ([1]; first compound 0.253 µM): 1.2
relative viability ([1]; first compound 0.8 µM): 1.13
relative viability ([1]; first compound 2.53 µM): 0.78
relative viability ([1]; first compound 8 µM): 1.27
relative viability ([2]; first compound 0.005 µM): 0.625
relative viability ([2]; first compound 0.01581 µM): 0.5
relative viability ([2]; first compound 0.05 µM): 0.662
relative viability ([2]; first compound 0.1581 µM): 0.524
relative viability ([2]; first compound 0.5 µM): 0.688
relative viability ([3]; first compound 0.05 µM): 0.53
relative viability ([3]; first compound 0.1581 µM): 0.542
relative viability ([3]; first compound 0.5 µM): 0.599
relative viability ([3]; first compound 1.581 µM): 0.51
relative viability ([3]; first compound 5 µM): 0.426

BEN
relative viability ([1]; first compound 0.08 µM): 0.557
relative viability ([1]; first compound 0.253 µM): 0.723
relative viability ([1]; first compound 0.8 µM): 0.592
relative viability ([1]; first compound 2.53 µM): 0.441
relative viability ([1]; first compound 8 µM): 0.558
relative viability ([2]; first compound 0.005 µM): 0.448
relative viability ([2]; first compound 0.01581 µM): 0.387
relative viability ([2]; first compound 0.05 µM): 0.43
relative viability ([2]; first compound 0.1581 µM): 0.365
relative viability ([2]; first compound 0.5 µM): 0.34
relative viability ([3]; first compound 0.05 µM): 0.321
relative viability ([3]; first compound 0.1581 µM): 0.327
relative viability ([3]; first compound 0.5 µM): 0.343
relative viability ([3]; first compound 1.581 µM): 0.246
relative viability ([3]; first compound 5 µM): 0.331
relative viability ([4]; first compound 0.005 µM): 0.596
relative viability ([4]; first compound 0.01581 µM): 0.572
relative viability ([4]; first compound 0.05 µM): 0.511
relative viability ([4]; first compound 0.1581 µM): 0.478
relative viability ([4]; first compound 0.5 µM): 0.448

CAL-12T
relative viability ([1]; first compound 0.08 µM): 0.681
relative viability ([1]; first compound 0.253 µM): 0.866
relative viability ([1]; first compound 0.8 µM): 0.834
relative viability ([1]; first compound 2.53 µM): 0.737
relative viability ([1]; first compound 8 µM): 0.76
relative viability ([2]; first compound 0.005 µM): 0.418
relative viability ([2]; first compound 0.01581 µM): 0.414
relative viability ([2]; first compound 0.05 µM): 0.402
relative viability ([2]; first compound 0.1581 µM): 0.191
relative viability ([2]; first compound 0.5 µM): 0.144
relative viability ([3]; first compound 0.05 µM): 0.497
relative viability ([3]; first compound 0.1581 µM): 0.402
relative viability ([3]; first compound 0.5 µM): 0.405
relative viability ([3]; first compound 1.581 µM): 0.396
relative viability ([3]; first compound 5 µM): 0.409
relative viability ([4]; first compound 0.005 µM): 1.23
relative viability ([4]; first compound 0.01581 µM): 1.2
relative viability ([4]; first compound 0.05 µM): 1.27
relative viability ([4]; first compound 0.1581 µM): 0.929
relative viability ([4]; first compound 0.5 µM): 0.479

COR-L23
relative viability ([1]; first compound 0.08 µM): 0.409
relative viability ([1]; first compound 0.253 µM): 0.452
relative viability ([1]; first compound 0.8 µM): 0.496
relative viability ([1]; first compound 2.53 µM): 0.414
relative viability ([1]; first compound 8 µM): 0.385
relative viability ([2]; first compound 0.005 µM): 0.317
relative viability ([2]; first compound 0.01581 µM): 0.229
relative viability ([2]; first compound 0.05 µM): 0.229
relative viability ([2]; first compound 0.1581 µM): 0.168
relative viability ([2]; first compound 0.5 µM): 0.19
relative viability ([3]; first compound 0.05 µM): 0.585
relative viability ([3]; first compound 0.1581 µM): 0.544
relative viability ([3]; first compound 0.5 µM): 0.477
relative viability ([3]; first compound 1.581 µM): 0.42
relative viability ([3]; first compound 5 µM): 0.497
relative viability ([4]; first compound 0.005 µM): 0.211
relative viability ([4]; first compound 0.01581 µM): 0.196
relative viability ([4]; first compound 0.05 µM): 0.19
relative viability ([4]; first compound 0.1581 µM): 0.19
relative viability ([4]; first compound 0.5 µM): 0.18

COR-L 105
relative viability ([1]; first compound 0.08 µM): 0.772
relative viability ([1]; first compound 0.253 µM): 0.911
relative viability ([1]; first compound 0.8 µM): 0.688
relative viability ([1]; first compound 2.53 µM): 0.809
relative viability ([1]; first compound 8 µM): 0.967
relative viability ([2]; first compound 0.005 µM): 0.429
relative viability ([2]; first compound 0.01581 µM): 0.363
relative viability ([2]; first compound 0.05 µM): 0.368
relative viability ([2]; first compound 0.1581 µM): 0.371
relative viability ([2]; first compound 0.5 µM): 0.275
relative viability ([3]; first compound 0.05 µM): 0.463
relative viability ([3]; first compound 0.1581 µM): 0.325
relative viability ([3]; first compound 0.5 µM): 0.343
relative viability ([3]; first compound 1.581 µM): 0.365
relative viability ([3]; first compound 5 µM): 0.323
relative viability ([4]; first compound 0.005 µM): 0.869
relative viability ([4]; first compound 0.01581 µM): 1.1
relative viability ([4]; first compound 0.05 µM): 0.783
relative viability ([4]; first compound 0.1581 µM): 0.605
relative viability ([4]; first compound 0.5 µM): 0.361
